Experimental data published in ChEMBL document CHEMBL1201862, “PubChem BioAssay data set” (2004).
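In this assay, cells in 96-well plates receive the compound at five concentrations for 48 hours. Endpoints are linearly interpolated between the surrounding concentrations. GI50 = concentration required for 50% inhibition of growth.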 Calls of active or inactive are those of the source. Rule as the data show it: active = GI50 up to about 1.1 µM and inactive = higher.

How the values were obtained:
Assay in all cases: NCI tumour cell line growth inhibition, 48 h
MOLT-4 = tested on: MOLT-4
M14 = tested on: M14
SF-268 = tested on: SF-268
BT-549 = tested on: BT-549
SW-620 = tested on: SW-620
KM12 = tested on: KM12
HL-60 = tested on: HL-60
NCI-H23 = tested on: NCI-H23
COLO 205 = tested on: COLO 205
Malme-3M = tested on: Malme-3M
786-0 = tested on: 786-0
SK-MEL-2 = tested on: SK-MEL-2
OVCAR-5 = tested on: OVCAR-5
SF-295 = tested on: SF-295
CCRF-CEM = tested on: CCRF-CEM
T47D = tested on: T47D
A498 = tested on: A498
A549 = tested on: A549
SK-MEL-28 = tested on: SK-MEL-28

SMILES	GI50 (MOLT-4)	GI50 (M14)	GI50 (SF-268)	GI50 (BT-549)	GI50 (SW-620)	GI50 (KM12)	GI50 (HL-60)	GI50 (NCI-H23)	GI50 (COLO 205)	GI50 (Malme-3M)	GI50 (786-0)	GI50 (SK-MEL-2)	GI50 (OVCAR-5)	GI50 (SF-295)	GI50 (CCRF-CEM)	GI50 (T47D)	GI50 (A498)	GI50 (A549)	GI50 (SK-MEL-28)
COC(=O)c1cnn2c1ccc1ccccc12	> 100 µM (inactive)	> 100 µM (inactive)	> 100 µM (inactive)	45.8 µM (inactive)	> 100 µM (inactive)	61.5 µM (inactive)	45.9 µM (inactive)	> 100 µM (inactive)	> 100 µM (inactive)	> 100 µM (inactive)	> 100 µM (inactive)	> 100 µM (inactive)	> 100 µM (inactive)	> 100 µM (inactive)	> 100 µM (inactive)	> 100 µM (inactive)	> 100 µM (inactive)	> 100 µM (inactive)	> 100 µM (inactive)
O=C(C1OC1c1cccc([N+](=O)[O-])c1)C12CC3CC(CC(C3)C1)C2 (stereo not drawn)	2.82 µM (inactive)	8.99 µM (inactive)	2.63 µM (inactive)	3.09 µM (inactive)	2.97 µM (inactive)	3.78 µM (inactive)	2.43 µM (inactive)	5.74 µM (inactive)	9.89 µM (inactive)	13.7 µM (inactive)	2.69 µM (inactive)	14.3 µM (inactive)	7.21 µM (inactive)	6.11 µM (inactive)	2.89 µM (inactive)	11.7 µM (inactive)	5.13 µM (inactive)	12.9 µM (inactive)	12.3 µM (inactive)
CCOC(=O)NC(Nc1ccc([N+](=O)[O-])cc1)(C(F)(F)F)C(F)(F)F	54.2 µM (inactive)	60.4 µM (inactive)	> 100 µM (inactive)	96.2 µM (inactive)	> 100 µM (inactive)	82.2 µM (inactive)	54.1 µM (inactive)	> 100 µM (inactive)	> 100 µM (inactive)	> 100 µM (inactive)	> 100 µM (inactive)	> 100 µM (inactive)	> 100 µM (inactive)	> 100 µM (inactive)	> 100 µM (inactive)	58.3 µM (inactive)	91.2 µM (inactive)	45 µM (inactive)	> 100 µM (inactive)
Oc1cc(Br)cc2cc(Cl)cnc12	1.55 µM (inactive)	1.35 µM (inactive)	0.893 µM (active)	2.44 µM (inactive)	2.83 µM (inactive)	4.06 µM (inactive)	0.463 µM (active)	5.47 µM (inactive)	21.4 µM (inactive)	2.52 µM (inactive)	8.71 µM (inactive)	22.3 µM (inactive)	18.7 µM (inactive)	2.08 µM (inactive)	1.53 µM (inactive)	3.21 µM (inactive)	8.26 µM (inactive)	2.06 µM (inactive)	3.29 µM (inactive)
COc1cc(/C=C/C(=O)CC(=O)/C=C/c2cc(C)c(O)c(OC)c2)cc(C)c1O	> 100 µM (inactive)	> 100 µM (inactive)	> 100 µM (inactive)	> 100 µM (inactive)	> 100 µM (inactive)	> 100 µM (inactive)	38.9 µM (inactive)	> 100 µM (inactive)	> 100 µM (inactive)	> 100 µM (inactive)	> 100 µM (inactive)	> 100 µM (inactive)	> 100 µM (inactive)	> 100 µM (inactive)	65.6 µM (inactive)	> 100 µM (inactive)	> 100 µM (inactive)	> 100 µM (inactive)	> 100 µM (inactive)
COc1cc2c(SCCN(C)C)nc3ccccc3c2c2ccccc12	1.54 µM (inactive)	1.68 µM (inactive)	2.04 µM (inactive)	5.7 µM (inactive)	1.74 µM (inactive)	1.56 µM (inactive)	0.193 µM (active)	5.46 µM (inactive)	1.68 µM (inactive)	1.82 µM (inactive)	1.93 µM (inactive)	1.87 µM (inactive)	1.64 µM (inactive)	1.77 µM (inactive)	0.281 µM (active)	2.7 µM (inactive)	10.7 µM (inactive)	1.77 µM (inactive)	1.78 µM (inactive)
COc1cc(/C=C2\CC3C4CC[C@H]5C[C@@H](O)CC[C@]5(C)C4CC[C@]3(C)\C2=N\O)cc(OC)c1OC (stereo partly drawn)	5.33 µM (inactive)	14.4 µM (inactive)	24 µM (inactive)	14.9 µM (inactive)	18.2 µM (inactive)	6.9 µM (inactive)	3.46 µM (inactive)	15.6 µM (inactive)	5.94 µM (inactive)	16.7 µM (inactive)	7.96 µM (inactive)	11.7 µM (inactive)	22.1 µM (inactive)	3.97 µM (inactive)	6.47 µM (inactive)	4.73 µM (inactive)	11.2 µM (inactive)	7 µM (inactive)	14.7 µM (inactive)
